# Reference: PubChem BioAssay AID2060599 (Molecular Pharmacology Branch, DTP, NCI, 2025)
# Test system: 817829-284-R-J1-PDC complex spheroids, viability
# Experiment: Anticancer human tumor 817829-284-R-J1-PDC patient-derived colon adenocarcinoma cell line growth inhibition [CLK]
# Conditions: curve of first compound; second compound 0.0316 µM
# Summary of the method: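 Multi-cell-type spheroids combined patient-derived tumor cells with HUVEC endothelial cells and human mesenchymal stem cells. Paired agents were dosed in half-log steps down from about clinical Cmax, or from 10 microM where Cmax was unknown.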
# 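Also: spheroids exposed to the agents for seven days before readout.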
row,Compound,IC50 [µM]
1,C#Cc1c(F)ccc2cc(O)cc(-c3ncc4c(N5CC6CCC(C5)N6)nc(OCC56CCCN5CC(F)C6)nc4c3F)c12 (stereo unspecified) + CNC(=O)c1ccc(Nc2nc(OC3CCCC3)c3c(-c4ccc5nc(C)oc5c4)c[nH]c3n2)c(OC)c1,< 0.0316
2,C=C(F)C(=O)N1CCN(c2nc(OCC3CCCN3C)nc3c2CCN(c2cccc4cccc(Cl)c24)C3)CC1CC#N (stereo unspecified) + CNC(=O)c1ccc(Nc2nc(OC3CCCC3)c3c(-c4ccc5nc(C)oc5c4)c[nH]c3n2)c(OC)c1,< 0.0316
3,C=CC(=O)N1CCN(c2nc(=O)n(-c3c(C)ccnc3C(C)C)c3nc(-c4c(O)cccc4F)c(F)cc23)C(C)C1 (stereo unspecified) + CNC(=O)c1ccc(Nc2nc(OC3CCCC3)c3c(-c4ccc5nc(C)oc5c4)c[nH]c3n2)c(OC)c1,< 0.0316
4,CCCS(=O)(=O)Nc1ccc(F)c(C(=O)c2c[nH]c3ncc(-c4ccc(Cl)cc4)cc23)c1F + CNC(=O)c1ccc(Nc2nc(OC3CCCC3)c3c(-c4ccc5nc(C)oc5c4)c[nH]c3n2)c(OC)c1,< 0.0316
5,COC1C=CCC(C)C(C)S(=O)(=O)NC(=O)c2ccc3c(c2)N(CC2CCC21)CC1(CCCc2cc(Cl)ccc21)CO3 (stereo unspecified) + CNC(=O)c1ccc(Nc2nc(OC3CCCC3)c3c(-c4ccc5nc(C)oc5c4)c[nH]c3n2)c(OC)c1,< 0.0316

# Same assay, conditions: curve of first compound; second compound 0.1 µM
row,Compound,IC50 [µM]
1,C#Cc1c(F)ccc2cc(O)cc(-c3ncc4c(N5CC6CCC(C5)N6)nc(OCC56CCCN5CC(F)C6)nc4c3F)c12 (stereo unspecified) + CNC(=O)c1ccc(Nc2nc(OC3CCCC3)c3c(-c4ccc5nc(C)oc5c4)c[nH]c3n2)c(OC)c1,< 0.0316
2,C=C(F)C(=O)N1CCN(c2nc(OCC3CCCN3C)nc3c2CCN(c2cccc4cccc(Cl)c24)C3)CC1CC#N (stereo unspecified) + CNC(=O)c1ccc(Nc2nc(OC3CCCC3)c3c(-c4ccc5nc(C)oc5c4)c[nH]c3n2)c(OC)c1,< 0.0316
3,C=CC(=O)N1CCN(c2nc(=O)n(-c3c(C)ccnc3C(C)C)c3nc(-c4c(O)cccc4F)c(F)cc23)C(C)C1 (stereo unspecified) + CNC(=O)c1ccc(Nc2nc(OC3CCCC3)c3c(-c4ccc5nc(C)oc5c4)c[nH]c3n2)c(OC)c1,< 0.0316
4,CCCS(=O)(=O)Nc1ccc(F)c(C(=O)c2c[nH]c3ncc(-c4ccc(Cl)cc4)cc23)c1F + CNC(=O)c1ccc(Nc2nc(OC3CCCC3)c3c(-c4ccc5nc(C)oc5c4)c[nH]c3n2)c(OC)c1,< 0.0316
5,COC1C=CCC(C)C(C)S(=O)(=O)NC(=O)c2ccc3c(c2)N(CC2CCC21)CC1(CCCc2cc(Cl)ccc21)CO3 (stereo unspecified) + CNC(=O)c1ccc(Nc2nc(OC3CCCC3)c3c(-c4ccc5nc(C)oc5c4)c[nH]c3n2)c(OC)c1,< 0.0316

# Same assay, conditions: curve of first compound; second compound 0.316 µM
row,Compound,IC50 [µM]
1,C#Cc1c(F)ccc2cc(O)cc(-c3ncc4c(N5CC6CCC(C5)N6)nc(OCC56CCCN5CC(F)C6)nc4c3F)c12 (stereo unspecified) + CNC(=O)c1ccc(Nc2nc(OC3CCCC3)c3c(-c4ccc5nc(C)oc5c4)c[nH]c3n2)c(OC)c1,< 0.0316
2,C=C(F)C(=O)N1CCN(c2nc(OCC3CCCN3C)nc3c2CCN(c2cccc4cccc(Cl)c24)C3)CC1CC#N (stereo unspecified) + CNC(=O)c1ccc(Nc2nc(OC3CCCC3)c3c(-c4ccc5nc(C)oc5c4)c[nH]c3n2)c(OC)c1,< 0.0316
3,C=CC(=O)N1CCN(c2nc(=O)n(-c3c(C)ccnc3C(C)C)c3nc(-c4c(O)cccc4F)c(F)cc23)C(C)C1 (stereo unspecified) + CNC(=O)c1ccc(Nc2nc(OC3CCCC3)c3c(-c4ccc5nc(C)oc5c4)c[nH]c3n2)c(OC)c1,< 0.0316
4,CCCS(=O)(=O)Nc1ccc(F)c(C(=O)c2c[nH]c3ncc(-c4ccc(Cl)cc4)cc23)c1F + CNC(=O)c1ccc(Nc2nc(OC3CCCC3)c3c(-c4ccc5nc(C)oc5c4)c[nH]c3n2)c(OC)c1,< 0.0316
5,COC1C=CCC(C)C(C)S(=O)(=O)NC(=O)c2ccc3c(c2)N(CC2CCC21)CC1(CCCc2cc(Cl)ccc21)CO3 (stereo unspecified) + CNC(=O)c1ccc(Nc2nc(OC3CCCC3)c3c(-c4ccc5nc(C)oc5c4)c[nH]c3n2)c(OC)c1,< 0.0316

# Same assay, conditions: curve of first compound; second compound 1 µM
row,Compound,IC50 [µM]
1,C#Cc1c(F)ccc2cc(O)cc(-c3ncc4c(N5CC6CCC(C5)N6)nc(OCC56CCCN5CC(F)C6)nc4c3F)c12 (stereo unspecified) + CNC(=O)c1ccc(Nc2nc(OC3CCCC3)c3c(-c4ccc5nc(C)oc5c4)c[nH]c3n2)c(OC)c1,< 0.0316
2,C=C(F)C(=O)N1CCN(c2nc(OCC3CCCN3C)nc3c2CCN(c2cccc4cccc(Cl)c24)C3)CC1CC#N (stereo unspecified) + CNC(=O)c1ccc(Nc2nc(OC3CCCC3)c3c(-c4ccc5nc(C)oc5c4)c[nH]c3n2)c(OC)c1,< 0.0316
3,C=CC(=O)N1CCN(c2nc(=O)n(-c3c(C)ccnc3C(C)C)c3nc(-c4c(O)cccc4F)c(F)cc23)C(C)C1 (stereo unspecified) + CNC(=O)c1ccc(Nc2nc(OC3CCCC3)c3c(-c4ccc5nc(C)oc5c4)c[nH]c3n2)c(OC)c1,< 0.0316
4,CCCS(=O)(=O)Nc1ccc(F)c(C(=O)c2c[nH]c3ncc(-c4ccc(Cl)cc4)cc23)c1F + CNC(=O)c1ccc(Nc2nc(OC3CCCC3)c3c(-c4ccc5nc(C)oc5c4)c[nH]c3n2)c(OC)c1,< 0.0316
5,COC1C=CCC(C)C(C)S(=O)(=O)NC(=O)c2ccc3c(c2)N(CC2CCC21)CC1(CCCc2cc(Cl)ccc21)CO3 (stereo unspecified) + CNC(=O)c1ccc(Nc2nc(OC3CCCC3)c3c(-c4ccc5nc(C)oc5c4)c[nH]c3n2)c(OC)c1,< 0.0316

# Same assay, conditions: curve of first compound; second compound 3.16 µM
row,Compound,IC50 [µM]
1,C#Cc1c(F)ccc2cc(O)cc(-c3ncc4c(N5CC6CCC(C5)N6)nc(OCC56CCCN5CC(F)C6)nc4c3F)c12 (stereo unspecified) + CNC(=O)c1ccc(Nc2nc(OC3CCCC3)c3c(-c4ccc5nc(C)oc5c4)c[nH]c3n2)c(OC)c1,< 0.0316
2,C=C(F)C(=O)N1CCN(c2nc(OCC3CCCN3C)nc3c2CCN(c2cccc4cccc(Cl)c24)C3)CC1CC#N (stereo unspecified) + CNC(=O)c1ccc(Nc2nc(OC3CCCC3)c3c(-c4ccc5nc(C)oc5c4)c[nH]c3n2)c(OC)c1,< 0.0316
3,C=CC(=O)N1CCN(c2nc(=O)n(-c3c(C)ccnc3C(C)C)c3nc(-c4c(O)cccc4F)c(F)cc23)C(C)C1 (stereo unspecified) + CNC(=O)c1ccc(Nc2nc(OC3CCCC3)c3c(-c4ccc5nc(C)oc5c4)c[nH]c3n2)c(OC)c1,< 0.0316
4,CCCS(=O)(=O)Nc1ccc(F)c(C(=O)c2c[nH]c3ncc(-c4ccc(Cl)cc4)cc23)c1F + CNC(=O)c1ccc(Nc2nc(OC3CCCC3)c3c(-c4ccc5nc(C)oc5c4)c[nH]c3n2)c(OC)c1,< 0.0316
5,COC1C=CCC(C)C(C)S(=O)(=O)NC(=O)c2ccc3c(c2)N(CC2CCC21)CC1(CCCc2cc(Cl)ccc21)CO3 (stereo unspecified) + CNC(=O)c1ccc(Nc2nc(OC3CCCC3)c3c(-c4ccc5nc(C)oc5c4)c[nH]c3n2)c(OC)c1,< 0.0316

# Same assay, conditions: curve of first compound; second compound 10 µM
row,Compound,IC50 [µM]
1,C#Cc1c(F)ccc2cc(O)cc(-c3ncc4c(N5CC6CCC(C5)N6)nc(OCC56CCCN5CC(F)C6)nc4c3F)c12 (stereo unspecified) + CNC(=O)c1ccc(Nc2nc(OC3CCCC3)c3c(-c4ccc5nc(C)oc5c4)c[nH]c3n2)c(OC)c1,0.0344
